Measurements as given in patent US8268961B2, “Antibacterial peptides and analogues thereof” (Universita Degli Studi di Siena, priority 2004, dated 2012).
Where two headings read alike, the source gives them in different places. Positions of bridges follow the written chain, without caps; N, C: chain ends. Chains are numbered I, II in the order given. No end group written: not given here.

Assays:
Assay type in all cases: cell-based
[1] = test system: Pichia pastoris yeast strain X33; test: Effect on Pichia pastoris yeast colonies
Procedure: To a volume of 50 μl of culture of Pichia pastoris grown 24 hour at 30° C. in YPD (Yeast Extract/Peptone/Dextrose) medium, 50 μl of MAP peptides (2 mg/ml) were added and left in incubation 150 min at 37° C. Subsequently, 50 μl of each incubation were plated on YPD solid medium and it was allowed to grow for 48 hours at 30° C. The number of colonies grown was compared with a control, where the yeast was not treated with the MAP.

[2] = test system: Chryseobacterium meningosepticum CCUG4310; test: MIC, standard microdilution assay; conditions: Chryseobacterium meningosepticum CCUG4310, reference strain
Excerpt: (§1) MIC is defined as the lowest concentration, in an antibiotic dilution range, that inhibits visible bacterial growth. The importance of MIC sensitivity test is based on the principle that in vitro sensitivity provides a predictive indication of the in vivo efficacy of the antibiotic therapy. Values are expressed as molar concentration and compared to MIC values obtained with commercially available antibiotics such as amikacin, ceftriaxone and levofloxacin (Table 3).
(§2) Reference strains (Escherichia coli ATCC 25922, Pseudomonas aeruginosa ATCC 27853, Staphylococus aureus ATCC 25923 and Chryseobacterium meningosepticum CCUG 4310) and several recent clinical isolates (including multidrug-resistant ones) of various species (Table 2) were used for conventional susceptibility testing experiments. Minimum Inhibitory Concentration (MIC) was determined by a standard microdilution assay as recommended by the National Commitee for Clinical Laboratory Standards (NCCLS) using cation-supplemented Mueller-Hinton (MH) broth (Oxoid Ltd. Basingstoke, UK) and a bacterial inoculum of 5×10^4 CFU per well, in a final volume of 100 μl. Results were recorded by visual inspection after 24 h of incubation at 37° C.

[3] = test system: Proteus mirabilis W99FI0089; test: MIC, standard microdilution assay; conditions: Proteus mirabilis W99FI0089, FQR
Excerpt: as §1, §2

[4] = test system: Morganella morganii W03VA1342; test: MIC, standard microdilution assay; conditions: Morganella morganii W03VA1342, FQR ESCR (ESBL/CTX-M-1)
Excerpt: as §1, §2

[5] = test system: Stenotrophomonas maltophilia PT4/99; test: MIC, standard microdilution assay; conditions: Stenotrophomonas maltophilia PT4/99, wild-type profile
Excerpt: as §1, §2

[6] = test system: Providencia stuartii W03FI0001; test: MIC, standard microdilution assay; conditions: Providencia stuartii W03FI0001, AGR ESCR (ESBL/PER-1)
Excerpt: as §1, §2

[7] = test system: Serratia marcescens W99FI0111; test: MIC, standard microdilution assay; conditions: Serratia marcescens W99FI0111, FQR AGR ESCR (ESBL/SHV-5)
Excerpt: as §1, §2

E. coli ATCC 25922 = test: Minimal bactericidal concentration (MBC)
Procedure: as §2
(§3) The MBC was determined as recommended by the National Committee for Clinical Laboratory Standards (NCCLS) on strains of E. coli ATCC 25922 and P. aeruginosa ATCC 27853.

P. aeruginosa ATCC 27853 = test: Minimal bactericidal concentration (MBC)
Procedure: as §2, §3

[8] = test system: Pseudomonas aeruginosa ATCC27853; conditions: ATCC27853
Procedure, shortened: (§4)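 Visual end point: lowest molar concentration stopping visible bacterial growth in cation-supplemented MH broth, standard microdilution, 5×10^4 CFU inoculum per well, 24 h incubation at 37° C.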

[9] = test system: Staphylococcus aureus ATCC 25923; conditions: Staphylococcus aureus ATCC 25923, reference strain
Procedure, shortened: as §4

[10] = test system: Escherichia coli ATCC 25922; conditions: ATCC 25922
Procedure, shortened: as §4

[11] = test system: Klebsiella pneumoniae W03NO0078
Procedure, shortened: as §4

[12] = test system: Pseudomonas aeruginosa VA463/98
Procedure, shortened: as §4

[13] = test system: Proteus mirabilis W03VA1144
Procedure, shortened: as §4

[14] = test system: Enterobacter aerogenes W03BG0067
Procedure, shortened: as §4

[15] = test system: Escherichia coli W03BG0025
Procedure, shortened: as §4

[16] = test system: Acinetobacter baumannii AB7MG
Procedure, shortened: as §4

[17] = test system: Klebsiella pneumoniae W99FI0057; conditions: W99FI0057
Procedure, shortened: as §4

[18] = test system: Escherichia coli W03NO0013
Procedure, shortened: as §4

[19] = test system: Citrobacter freundii W99FI00007
Procedure, shortened: as §4

[20] = test system: Acinetobacter baumannii AB1MG
Procedure, shortened: as §4

[21] = test system: Enterobacter cloacae W03AN0041
Procedure, shortened: as §4

[22] = test system: Escherichia coli W99FI0077; conditions: W99FI0077
Procedure, shortened: as §4

[23] = test system: Pseudomonas aeruginosa 891; conditions: 891
Procedure, shortened: as §4

[24] = test system: Klebsiella pneumoniae W03BG0019
Procedure, shortened: as §4

[25] = test system: Pseudomonas aeruginosa 885149; conditions: 885149
Procedure, shortened: as §4

[26] = test system: Burkholderia cepacia SMC71
Procedure, shortened: as §4

[27] = test system: Klebsiella oxytoca W99FI00049
Procedure, shortened: as §4

For “I: QKKIRVRLSAKKA-OH / II: QKKIRVRLSAK / III: QKKIRVRLSA / IV: QKKIRVRLSA (amide I:11-IV:C, I:12-II:C, II:11-III:C) [M6, QKKIRVRLSA]”, the “Number of yeast colonies vs negative control” value [1] was “did not differ from the negative control”, the “MIC (Molarity)” value [2] was over 49 µM and the “MIC (Molarity)” value [3] was over 49 µM. For the same substance, the “MIC (Molarity)” value [4] was over 49 µM, the “MIC (Molarity)” value [5] was over 49 µM and the “MIC (Molarity)” value [6] was over 49 µM. The “MIC (Molarity)” value [7] was over 49 µM, the “MBC (minimal concentration able to kill 99.9% of the inoculum) compared with MIC” value (E. coli ATCC 25922) was “equal to the calculated values of MIC” and the “MBC (minimal concentration able to kill 99.9% of the inoculum) compared with MIC” value (E. coli ATCC 25922; listed as QKKIRVRLSA) was “equal to the corresponding MIC values”. The “MBC (minimal concentration able to kill 99.9% of the inoculum) compared with MIC” value (P. aeruginosa ATCC 27853) was “equal to the calculated values of MIC”, the “MBC (minimal concentration able to kill 99.9% of the inoculum) compared with MIC” value (P. aeruginosa ATCC 27853; listed as QKKIRVRLSA) was “equal to the corresponding MIC values” and the “MIC (Molarity)” value [8] was 0.76 µM. The “MIC (Molarity)” value [9] was over 4.9e-05 M, the “MIC (Molarity)” value ([9]; listed as QKKIRVRLSA) was ~10^−5 M and the “MIC (Molarity)” value [10] was 1.5 µM. The “MIC (Molarity)” value [11] was 3 µM, the “MIC (Molarity)” value [12] was 0.76 µM and the “MIC (Molarity)” value [13] was 12 µM. For the same substance, the “MIC (Molarity)” value [14] was 1.5 µM, the “MIC (Molarity)” value [15] was 1.5 µM and the “MIC (Molarity)” value [16] was 6 µM. The “MIC (Molarity)” value [17] was 0.76 µM, the “MIC (Molarity)” value [18] was 1.5 µM and the “MIC (Molarity)” value [19] was 3 µM. For the same substance, the “MIC (Molarity)” value [20] was 3 µM, the “MIC (Molarity)” value [21] was 0.76 µM and the “MIC (Molarity)” value [22] was 1.5 µM. For the same substance, the “MIC (Molarity)” value [23] was 1.5 µM, the “MIC (Molarity)” value [24] was 1.5 µM and the “MIC (Molarity)” value [25] was 1.5 µM. For the same substance, the “MIC (Molarity)” value [26] was 12 µM and the “MIC (Molarity)” value [27] was 12 µM.
